Data: DBAASP
Converted amounts (≈) assume the structure as drawn.

Legend:
Experiment in all cases: ≥ marks a high value that may be exact or a test limit, other limits are often not marked, values filed in µg/mL are converted to µM
[1] = test system: Candida albicans
[2] = test system: Escherichia coli MG1655
[3] = test system: Pseudomonas aeruginosa PAO1
[4] = test system: Staphylococcus aureus ATCC 25923
[5] = test system: Bacillus subtilis ATCC 6633
[6] = test system: Candida albicans ATCC 2002
[7] = test system: Shigella dysenteriae
[8] = test system: Staphylococcus aureus ATCC 2592
[9] = test system: Streptococcus mutans
[10] = test system: Candida albicans ATCC 90028
[11] = test system: Staphylococcus aureus NCTC 8325
[12] = test system: Bacillus subtilis
[13] = test system: Escherichia coli
[14] = test system: Klebsiella pneumoniae
[15] = test system: Micrococcus luteus
[16] = test system: Proteus mirabilis
[17] = test system: Pseudomonas aeruginosa
[18] = test system: Salmonella typhimurium
[19] = test system: Staphylococcus aureus
[20] = test system: Staphylococcus epidermidis
[21] = test system: Bacillus cereus
[22] = test system: Leuconostoc lactis
[23] = test system: Listeria innocua
[24] = test system: Pasteurella multocida
[25] = test system: Streptococcus uberis
[26] = test system: Enterococcus faecalis
[27] = test system: Candida parapsilosis ATCC 22019
[28] = test system: Escherichia coli ATCC 25922
[29] = test system: Staphylococcus epidermidis ATCC 12228

Compound	MIC [7] [µM]	MIC [13] [µM]	MIC [15] [µM]	MIC [19] [µM]	MIC [20] [µM]	MIC [21] [µM]	MIC [22] [µM]	MIC [23] [µM]	MIC [24] [µM]	MIC [25] [µM]	further results
CSCC[C@H](NC(=O)[C@@H](NC(=O)[C@@H](N)CCCCN)C(C)C)C(=O)N[C@@H](CCCN=C(N)N)C(=O)N[C@@H](CCCCN)C(=O)N[C@H](C(=O)N[C@@H](CC(C)C)C(=O)NCC(=O)N[C@@H](Cc1ccc(O)cc1)C(=O)N[C@@H](CC(C)C)C(=O)N[C@@H](CCCN=C(N)N)C(=O)N[C@@H](CC(N)=O)C(=O)N[C@H](C(=O)N[C@@H](Cc1ccc(O)cc1)C(=O)N[C@@H](CCCCN)C(N)=O)C(C)C)C(C)C [KVMRKVLGYLRNVYK]	–	–	–	–	–	–	–	–	–	–	MIC [1]: 32 µM (≈ 59.7 µg/mL); MIC [2]: 2 µM (≈ 3.73 µg/mL); MIC [3]: 32 µM (≈ 59.7 µg/mL); MIC [4]: 128 µM (≈ 239 µg/mL)
CC[C@H](C)[C@H](NC(=O)[C@H](CCCCN)NC(=O)[C@@H]1CCCN1C(=O)[C@H](CC(C)C)NC(=O)[C@H](Cc1ccccc1)NC(=O)[C@H](CC(C)C)NC(=O)[C@@H]1CCCN1C(=O)[C@H](CC(C)C)NC(=O)[C@@H](N)Cc1ccccc1)C(=O)N[C@H](C(=O)N[C@H]1CSSC[C@@H](C(=O)O)NC(=O)[C@H](CCCCN)NC(=O)[C@H](CCCCN)NC(=O)[C@H]([C@@H](C)O)NC(=O)[C@H]([C@@H](C)CC)NC(=O)[C@H](C(C)C)NC1=O)[C@@H](C)CC [FLPLFLPKIICVITKKC]	17.7 (≈ 35 µg/mL)	–	–	–	–	–	–	–	–	–	MIC [5]: 4.75 µM (≈ 9.37 µg/mL); MIC [6]: 9.49 µM (≈ 18.7 µg/mL); MIC [8]: 2.38 µM (≈ 4.7 µg/mL)
NC(=O)[C@H](Cc1cnc[nH]1)NC(=O)[C@H](Cc1ccccc1)NC(=O)[C@H](Cc1ccccc1)NC(=O)[C@H](Cc1cnc[nH]1)NC(=O)[C@H](Cc1cnc[nH]1)NC(=O)[C@H](Cc1ccccc1)NC(=O)[C@H](Cc1cnc[nH]1)NC(=O)[C@H](CCCN=C(N)N)NC(=O)[C@H](Cc1c[nH]c2ccccc12)NC(=O)[C@H](Cc1c[nH]c2ccccc12)NC(=O)[C@H](CCCN=C(N)N)NC(=O)[C@H](CCCN=C(N)N)NC(=O)[C@H](Cc1c[nH]c2ccccc12)NC(=O)[C@@H](N)CCCN=C(N)N [RWRRWWRHFHHFFH]	–	–	–	–	–	–	–	–	–	–	MIC [9]: 3.65 µM (≈ 8 µg/mL)
CC[C@H](C)[C@H](NC(=O)CNC(=O)[C@H](CO)NC(=O)[C@H](CC(C)C)NC(=O)[C@H](CC(C)C)NC(=O)CN)C(=O)N[C@@H](CC(C)C)C(=O)NCC(=O)N[C@@H](C)C(=O)NCC(=O)N[C@@H](CCCCN)C(=O)N[C@@H](CC(N)=O)C(=O)N[C@H](C(=O)N[C@H](C(=O)N[C@H]1CSSC[C@@H](C(=O)O)NC(=O)[C@H](CC(C)C)NC(=O)CNC(=O)[C@H](CO)NC(=O)[C@H](CC(C)C)NC(=O)CNC1=O)C(C)C)[C@@H](C)CC [GLLSGILGAGKNIVCGLSGLC]	0.643 (≈ 1.25 µg/mL)	–	–	–	–	–	–	–	–	–	MIC [6]: 3.86 µM (≈ 7.49 µg/mL); MIC [10]: ≥ 100 µM; MIC [8]: 1.29 µM (≈ 2.5 µg/mL); MIC [11]: ≥ 100 µM
CC(C)C[C@H](NC(=O)[C@@H](NC(=O)[C@H](CCCCN)NC(=O)[C@H](CO)NC(=O)[C@H](C)NC(=O)[C@@H](NC(=O)[C@H](CCCCN)NC(=O)[C@H](Cc1ccccc1)NC(=O)[C@H](CC(C)C)NC(=O)[C@H](C)NC(=O)CN)C(C)C)C(C)C)C(=O)O [GALFKVASKVL]	≥ 177	177 (≈ 200 µg/mL)	≥ 177	177 (≈ 200 µg/mL)	≥ 177	–	–	–	–	–	MIC [12]: ≥ 177 µM; MIC [14]: > 177 µM; MIC [16]: ≥ 177 µM; MIC [17]: > 177 µM; MIC [18]: ≥ 177 µM
CC[C@H](C)[C@H](NC(=O)[C@@H](NC(=O)[C@@H]1CCCN1C(=O)[C@@H](NC(=O)[C@@H](NC(=O)[C@H](Cc1cnc[nH]1)NC(=O)[C@@H]1CCCN1C(=O)[C@H](CC(C)C)NC(=O)[C@@H](NC(=O)[C@H](Cc1cnc[nH]1)NC(=O)[C@H](CCCCN)NC(=O)[C@H](C)NC(=O)[C@@H](NC(=O)[C@H](CO)NC(=O)[C@H](CO)NC(=O)[C@H](CC(C)C)NC(=O)[C@H](CO)NC(=O)[C@H](CO)NC(=O)[C@H](CC(C)C)NC(=O)[C@H](CC(C)C)NC(=O)CN)C(C)C)C(C)C)C(C)C)C(C)C)C(C)C)C(=O)N[C@@H](C)C(=O)N[C@@H](CCC(=O)O)C(=O)N[C@@H](Cc1cnc[nH]1)C(=O)N[C@@H](CC(C)C)C(N)=O [GLLSSLSSVAKHVLPHVVPVIAEHL]	–	19.2 (≈ 50 µg/mL)	0.154 (≈ 0.4 µg/mL)	38.4 (≈ 100 µg/mL)	9.6 (≈ 25 µg/mL)	19.2 (≈ 50 µg/mL)	4.61 (≈ 12 µg/mL)	≥ 38.4	9.6 (≈ 25 µg/mL)	≥ 38.4	–
CC[C@H](C)[C@@H]1NC(=O)[C@H](C)NC(=O)[C@@H](NC(=O)[C@H](CCCCN)NC(=O)[C@@H](NC(=O)[C@H](CO)NC(=O)[C@@H]2CCCN2C(=O)[C@H](CC(C)C)NC(=O)[C@@H](NC(=O)[C@H](CCCCN)NC(=O)[C@H](CO)NC(=O)[C@H](C)NC(=O)[C@@H](NC(=O)[C@H](CCCCN)NC(=O)[C@H](Cc2ccccc2)NC(=O)[C@H](CC(C)C)NC(=O)[C@H](C)NC(=O)CNC(=O)[C@H](CC(C)C)NC(=O)[C@@H](N)Cc2ccccc2)C(C)C)C(C)C)C(C)C)CSSC[C@@H](C(=O)O)NC(=O)[C@H](CCCCN)NC(=O)[C@H](CCCCN)NC(=O)[C@H]([C@@H](C)O)NC1=O [FLGALFKVASKVLPSVKCAITKKC]	19.6 (≈ 50 µg/mL)	4.9 (≈ 12.5 µg/mL)	2.47 (≈ 6.3 µg/mL)	1.21 (≈ 3.1 µg/mL)	4.9 (≈ 12.5 µg/mL)	–	–	–	–	–	MIC [12]: 2.47 µM (≈ 6.3 µg/mL); MIC [14]: 9.8 µM (≈ 25 µg/mL); MIC [16]: ≥ 78.4 µM; MIC [17]: 78.4 µM (≈ 200 µg/mL); MIC [18]: ≥ 39.2 µM
CC[C@H](C)[C@H](NC(=O)[C@@H](NC(=O)CNC(=O)[C@H](C)NC(=O)[C@@H](NC(=O)[C@H](CCCCN)NC(=O)[C@H](CCCCN)NC(=O)[C@H](CC(C)C)NC(=O)[C@H](Cc1ccccc1)NC(=O)[C@H](CC(=O)O)NC(=O)[C@@H](NC(=O)[C@H](Cc1ccccc1)NC(=O)CN)C(C)C)C(C)C)[C@@H](C)O)C(=O)N[C@@H](C)C(=O)N[C@@H](CC(N)=O)C(=O)N[C@H](C(=O)N[C@H](C(=O)N[C@H](C(N)=O)[C@@H](C)O)C(C)C)C(C)C [GFVDFLKKVAGTIANVVT]	–	> 53.2	≥ 53.2	53.2 (≈ 99.9 µg/mL)	26.6 (≈ 50 µg/mL)	≥ 53.2	≥ 53.2	≥ 53.2	≥ 53.2	13.3 (≈ 25 µg/mL)	MIC [26]: ≥ 53.2 µM
CC[C@H](C)[C@H](N)C(=O)N[C@H](C(=O)N1CCC[C@H]1C(=O)N[C@@H](Cc1ccccc1)C(=O)N[C@@H](CC(C)C)C(=O)N[C@@H](CC(C)C)C(=O)NCC(=O)N[C@@H](CCSC)C(=O)N[C@H](C(=O)N1CCC[C@H]1C(=O)N[C@@H](CCCCN)C(=O)N[C@@H](CC(C)C)C(=O)N[C@H](C(=O)N[C@H]1CSSC[C@@H](C(=O)O)NC(=O)[C@H](CCCCN)NC(=O)[C@H](CCCCN)NC(=O)[C@H]([C@@H](C)O)NC(=O)[C@H]([C@@H](C)CC)NC(=O)[C@H](CC(C)C)NC1=O)C(C)C)C(C)C)C(C)C [IVPFLLGMVPKLVCLITKKC]	–	–	–	–	–	–	–	–	–	–	MIC [27]: 16 µM (≈ 35.4 µg/mL); MIC [28]: 64 µM (≈ 142 µg/mL); MIC [29]: 4 µM (≈ 8.86 µg/mL)
CC[C@H](C)[C@H](NC(=O)CNC(=O)[C@H](CO)NC(=O)[C@@H](NC(=O)[C@@H](NC(=O)CNC(=O)[C@H](CCCCN)NC(=O)[C@H](C)NC(=O)[C@H](CC(C)C)NC(=O)[C@H](CO)NC(=O)[C@H](CCC(=O)O)NC(=O)[C@H](CC(C)C)NC(=O)[C@H](CO)NC(=O)[C@H](CCC(=O)O)NC(=O)[C@H](CC(C)C)NC(=O)[C@H](CCCCN)NC(=O)[C@H](CCC(=O)O)NC(=O)[C@H](CCCCN)NC(=O)[C@@H](NC(=O)[C@@H](NC(=O)[C@H](CCC(N)=O)NC(=O)[C@H](CC(C)C)NC(=O)[C@H](CC(C)C)NC(=O)CN)[C@@H](C)O)[C@@H](C)CC)[C@@H](C)CC)C(C)C)C(=O)N[C@@H](CCC(N)=O)C(=O)N[C@@H](C)C(N)=O [GLLQTIKEKLESLESLAKGIVSGIQA]	–	> 36.7	≥ 36.7	> 36.7	≥ 36.7	≥ 36.7	≥ 36.7	≥ 36.7	≥ 36.7	9.17 (≈ 25 µg/mL)	MIC [26]: ≥ 36.7 µM
